Assay results as given in patent publication US20240342126A1, “HALLUCINOGEN-FATTY ACID COMBINATION” (Mindset Pharma Inc., priority 2021, published 2024).
“Also recorded” adds a separate entry of the source.

What was measured:
[1] = Pharmacokinetics in plasma and CSF after i.n. or s.c. administration of 5-MeO-DMT formulations; conditions: Sprague-Dawley, rat, plasma, iv, 1 mg/kg
[2] = system: C57BL/6J mice; assay: Mouse head twitch experiments; format: in vivo; conditions: for head twitch response of combination with linoleic acid vs test compound alone: equimolar dose of linoleic acid, SC; for effect on test compound-induced head twitches: M100907 0.5 mg/kg IP pretreatment
Procedure: Male, C57BL/6J mice (body weight range 20-30 g) were dosed with the appropriate dose(s) of test compound, or combination of test compounds, and following pre-treatment, the animals were placed in individual observation chambers. Animals were visually assessed for the incidence head twitches continuously over a 1 hr period. Head twitches were defined as a rapid jerk of the head which was not elicited by an external tactile stimulus (Corne S J, Pickering R W (1967) Psychopharmacologia 11 (1): 65-78). Each head twitch was individually counted by a trained observer, and the data expressed as the mean±SEM of 4-10 mice per group. In addition to the total number of head twitches recorded over the 1 hr observation period, head twitches were also scored according to each specific 10 min time bin within the 1 hr observation period (i.e. 0-10 min, 10-20 min, 20-30 min, etc).
Two types of experiments were conducted. In one, the effect of linoleic acid in combination with a test compound (psilocybin or 1-4) was studied. In these experiments, both test compounds, or saline control was injected subcutaneously (SC) 1 min prior to testing. […] In these experiments, M100907 (0.5 mg/kg IP) was injected 30 min prior to a single dose of test compound (i.e. psilocybin or I-4). […] 1 min following SC administration of the test compound, the mice were placed in the observation chambers for measurement of head twitch response.

[3] = target: human 5-HT2A (Homo sapiens, UniProt P28223); conditions: read-out: binding affinity 5-HT2A; cited from earlier work
Sequence of human 5-HT2A (P28223 whole entry): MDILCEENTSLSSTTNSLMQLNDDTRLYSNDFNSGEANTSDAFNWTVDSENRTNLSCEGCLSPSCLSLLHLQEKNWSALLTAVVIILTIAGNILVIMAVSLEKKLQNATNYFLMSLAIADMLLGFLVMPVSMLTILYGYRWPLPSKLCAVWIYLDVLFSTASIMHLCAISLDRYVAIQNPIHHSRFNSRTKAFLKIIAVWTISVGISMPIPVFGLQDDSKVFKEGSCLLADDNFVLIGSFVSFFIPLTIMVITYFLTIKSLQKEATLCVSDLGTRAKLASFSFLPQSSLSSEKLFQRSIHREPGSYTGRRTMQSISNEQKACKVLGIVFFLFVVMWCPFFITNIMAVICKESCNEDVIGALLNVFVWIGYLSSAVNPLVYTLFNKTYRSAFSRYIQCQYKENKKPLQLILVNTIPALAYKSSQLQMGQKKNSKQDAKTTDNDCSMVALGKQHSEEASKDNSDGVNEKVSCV

With `COc1ccc2[nH]cc(CCN(C)C)c2c1` [Compound 5-MeO-DMT, 5-methoxy-N,N-dimethyltryptamine] the AUC(0-inf) [1] was 35.3 ng·h/mL.

In the case of `[2H]C([2H])([2H])N(C([2H])([2H])[2H])C([2H])([2H])C([2H])([2H])c1c[nH]c2cccc(O)c12` [Compound I-4, 3-(2-(bis(methyl-d3)amino)ethyl-1,1,2,2-d4)-1H-indol-4-ol], the “head twitches over 1 hr (mean±SEM)” value ([2]; 0.3 mg/kg SC + linoleic acid at […] SC) is reported as 7.8±0.6, the “head twitches over 1 hr (mean±SEM)” value ([2]; 0.3 mg/kg SC + vehicle) is reported as 3.3±0.8 and the “head twitch response of combination with linoleic acid vs test compound alone” value [2] is reported as “more head twitches”. The “head twitch response of combination with linoleic acid vs test compound alone” value ([2]; listed as 1-4) was “greater head twitch response”.

With `COc1cccc([C@H](O)C2CCN(CCc3ccc(F)cc3)CC2)c1OC` [Compound M100907, reference compound] the “effect on test compound-induced head twitches” value ([2]; head twitches induced by I-4 6.2 mg/kg SC) was “completely blocked” and the “effect on test compound-induced head twitches” value ([2]; head twitches induced by psilocybin 3 mg/kg SC) was “completely blocked”.

In the case of `CN(C)CCc1c[nH]c2ccccc12` [DMT, N,N-dimethyltryptamine], the Ki [3] is listed as 237 nM.

With `CCCCC/C=C\C/C=C\CCCCCCCC(=O)O` [linoleic acid] the “head twitches over 1 hr (mean±SEM)” value ([2]; linoleic acid alone 10 mg/kg SC) was 1.0±0.7 and the “head twitches relative to vehicle” value ([2]; linoleic acid alone 0.1-10 mg/kg SC) was “did not induce head twitches to a significant degree; also recorded: no significant effect”.
